Reference: ChEMBL document CHEMBL1782049, “The synthesis and evaluation of a novel class of (E)-3-(1-cyclohexyl-1H-pyrazol-3-yl)-2-methylacrylic acid hepatitis C virus polymerase NS5B inhibitors” (Bioorg Med Chem Lett, 2011)
pEC50, pIC50: −log10 of the molar value.

Columns and labels:
Hepatitis C virus [1] = assay: Inhibition of Hepatitis C virus subtype 1b NS5B activity assessed as inhibition of poly(A)n.oligo(dT)12-18-directed incorporation of [3H]-UTP into […] after 45 mins
Hepatitis C virus [2] = assay: Antiviral activity against Hepatitis C virus subtype 1b infected in human Huh7 cells by replicon assay; type: functional, organism-based, Hepacivirus hominis; settings: genotype 1b, Huh-7
Hepatitis C virus [3] = assay: Antiviral activity against Hepatitis C virus subtype 1b harboring NS5B P495A mutant infected in human Huh7 cells by replicon assay; type: functional, organism-based, Hepacivirus hominis; settings: genotype 1b, Huh-7
[4] = Therapeutic index, ratio of CC50 for human HuH cells to EC50 for Hepatitis C virus subtype 1b; type: cell-based; settings: read-out: Ratio CC50/EC50

Row | pIC50 (Hepatitis C virus [1]) | pEC50 (Hepatitis C virus [2]) | Structure (SMILES) | pEC50 (Hepatitis C virus [3]) | selectivity ratio [4]
1 | 6.10 | – | CNC(=O)c1ccc(-c2ccc(C#N)cc2)c(COc2ccc(-c3cc(/C=C(\C)C(=O)O)nn3C3CCCCC3)cc2)c1 | – | –
2 | 5.79 | – | CNC(=O)c1ccc(-c2ccc(Cl)cc2)c(COc2ccc(-c3nc(/C=C(\C)C(=O)O)cn3C3CCCCC3)cc2)c1 | – | –
3 | 5.39 | – | CNC(=O)c1ccc(-c2ccc(Cl)cc2)c(COc2ccc(-n3nc(/C=C(\C)C(=O)O)cc3C3CCCCC3)cc2)c1 | – | –
4 | 6.42 | – | CNC(=O)c1ccc(-c2ccc(Cl)cc2)c(COc2ccc(-c3cc(/C=C(\C)C(=O)O)nn3C3CCCCC3)cc2)c1 | – | –
5 | 6.34 | 5.72 | C/C(=C\c1cc(-c2ccc(OCc3cc(C(=O)N(C)C)ccc3-c3ccc(Cl)cc3)cc2)n(C2CCCCC2)n1)C(=O)O | – | –
6 | 5.99 | – | C/C(=C\c1cc(-c2ccc(OCc3cc(C(=O)NCCO)ccc3-c3ccc(Cl)cc3)cc2)n(C2CCCCC2)n1)C(=O)O | – | –

More lines, now with the values behind:

Row | Structure (SMILES) | pIC50 (Hepatitis C virus [1]) | pEC50 (Hepatitis C virus [2]) | pEC50 (Hepatitis C virus [3]) | selectivity ratio [4]
7 | C/C(=C\c1cc(-c2ccc(OCc3cc(C(=O)N4CCC(O)CC4)ccc3-c3ccc(Cl)cc3)cc2)n(C2CCCCC2)n1)C(=O)O | 6.36 | – | – | –
8 | C/C(=C\c1nn(C2CCCCC2)c(-c2ccc(OCc3cc(C(=O)N4CCC(O)CC4)ccc3-c3ccc(Cl)cc3)cc2)c1Br)C(=O)O | 6.19 | 6.15 | – | –
9 | C/C(=C\c1cc(-c2ccc(OCc3cc(C(=O)N(C)C)ccc3-c3ccc(C#N)cc3)cc2)n(C2CCCCC2)n1)C(=O)O | 6.09 | – | – | –
10 | C/C(=C\c1cc(-c2ccc(OCc3cc(C(=O)N4CCC(O)CC4)ccc3-c3ccc(C#N)cc3)cc2)n(C2CCCCC2)n1)C(=O)O | 6.47 | 6.40 | 5.40 | > 60
11 | CNC(=O)c1ccc(-c2ccc(C(C)=O)s2)c(COc2ccc(-c3cc(/C=C(\C)C(=O)O)nn3C3CCCCC3)cc2)c1 | 5.64 | – | – | –
12 | CC(=O)c1ccc(-c2ccc(C(=O)N(C)C)cc2COc2ccc(-c3cc(/C=C(\C)C(=O)O)nn3C3CCCCC3)cc2)s1 | 5.57 | – | – | –
13 | CC(=O)c1ccc(-c2ccc(C(=O)N3CCOCC3)cc2COc2ccc(-c3cc(/C=C(\C)C(=O)O)nn3C3CCCCC3)cc2)s1 | 5.28 | – | – | –
14 | CNC(=O)c1ccc(-c2ccc(Cl)cc2)c(COc2ccc(-c3nc4cc(C(=O)O)ccc4n3C3CCCCC3)cc2)c1 | 6.19 | 6.52 | – | –
